Source: patent US20180179166A1, “SMALL MOLECULE INHIBITORS OF GP120-MEDIATED HIV INFECTION AND METHODS OF USE” (ViroCarb Inc., priority 2014, published 2018)

Target: R5 gp120 (Human immunodeficiency virus type 1 group M subtype B, UniProt P35961)
Conditions: CD4/CCR5 transfected U87 cells; 20 μg/mL gp120; western blot
Method: Cell bound R5 gp120 was detected by western blot. […] Lanes 1: cells alone; Cells treated with 2: 20 μg/mL gp120; 3: 20 μg/mL gp120+20 μM adaGb Gb3; 4: 20 μg/mL gp120+50 μM ada Gb3; 5: 20 μg/mL gp120+150 μM ada Gb3; 6: 20 μg/mL gp120+5 μg/mL solCD4; 7: 20 μg/mL gp120+5 μg/mL solCD4+20 μM ada Gb3; 8: 20 μg/mL gp120+5 μg/mL solCD4+50 μM ada Gb3; 9: 20 μg/mL gp120+5 μg/mL solCD4+150 μM ada Gb3; 10: 20 μg/mL gp120+50 μM.

**Q.** `CCCCCCCCCCCCC/C=C/[C@@H](O)[C@H](CO[C@@H]1O[C@H](CO)[C@@H](O[C@@H]2O[C@H](CO)[C@H](O[C@H]3O[C@H](CO)[C@H](O)[C@H](O)[C@H]3O)[C@H](O)[C@H]2O)[C@H](O)[C@H]1O)NC(=O)CC12CC3CC(CC(C3)C1)C2` [AdamantylGb3] was tested. Which “binding of R5 gp120 to CCR5 of cells after pretreatment of gp120” value did it give?
**A.** reduces its binding to CCR5 of cells
